Laboratory results published in patent US5350681A, “Enzymatic membrane method for the synthesis and separation of peptides” (The Coca-Cola Company, priority 1992, dated 1994).

Settings: pH 5

For `CC(C)OC(=O)[C@@H](N)Cc1ccccc1` [L-phe-O-<, L-phenylalanine isopropyl ester], the “chemical stability of L-phe-O-< over L-phe-OMe” value was “seven times higher” and the “stability of the ester (hydrolysis to L-phenylalanine)” value was “stable”.
